Common to all, as to assay: Radiolabeled ATP kinase assay, panel of 371 kinases (Table S6)
Holding throughout (format): biochemical

In test [1] the target is T1, panel of 371 human kinases (Homo sapiens, UniProt O43293).
T1 construct: purchased Reaction Biology Corp
Conditions: ZIPK/DAPK3; 0.1 μM; 10 μM ATP; read-out: % Enzyme Activity (relative to DMSO controls). The text has this: (§1) ; FIG. 38C). […]. Further targeted analyses, such as genetic knock-down or knock-out, may be warranted to parse the role of these additional kinases in our model of neurodegeneration.

The target of test [2] is T2, panel of 371 human kinases (Homo sapiens, UniProt O94804).
T2 construct: purchased Reaction Biology Corp
Conditions: LOK/STK10; 0.1 μM; 10 μM ATP; read-out: % Enzyme Activity (relative to DMSO controls).
From the text: as §1

Test [3] concerns the target T3, panel of 371 human kinases (Homo sapiens, UniProt O94806).
T3 construct: purchased Reaction Biology Corp
Conditions: PKCnu/PRKD3; 0.1 μM; 10 μM ATP; read-out: % Enzyme Activity (relative to DMSO controls).
From the text: as §1

Test [4] has as its target T4, panel of 371 human kinases (Homo sapiens, UniProt O95835).
T4 construct: purchased Reaction Biology Corp
Conditions: LATS1; 0.1 μM; 10 μM ATP; read-out: % Enzyme Activity (relative to DMSO controls).
From the text: as §1

Test [5] has as its target T5, panel of 371 human kinases (Homo sapiens, UniProt P08631).
T5 construct: purchased Reaction Biology Corp
The settings on record: HCK; 0.1 μM; 10 μM ATP; read-out: % Enzyme Activity (relative to DMSO controls).
From the text: as §1

In test [6] the target is T6, panel of 371 human kinases (Homo sapiens, UniProt P09769).
T6 construct: purchased Reaction Biology Corp
Conditions: FGR; 0.1 μM; 10 μM ATP; read-out: % Enzyme Activity (relative to DMSO controls).
From the text: as §1

Test [7] deals with T7, panel of 371 human kinases (Homo sapiens, UniProt P10398).
T7 construct: purchased Reaction Biology Corp
The settings on record: ARAF; 0.1 μM; 10 μM ATP; read-out: % Enzyme Activity (relative to DMSO controls).
From the text: as §1

Test [8] addresses T8, panel of 371 human kinases (Homo sapiens, UniProt P21709).
T8 construct: purchased Reaction Biology Corp
Conditions: EPHA1; 0.1 μM; 10 μM ATP; read-out: % Enzyme Activity (relative to DMSO controls).
From the text: as §1

The target of test [9] is T9, panel of 371 human kinases (Homo sapiens, UniProt P36507).
T9 construct: purchased Reaction Biology Corp
The settings on record: MEK2; 0.1 μM; 10 μM ATP; read-out: % Enzyme Activity (relative to DMSO controls).
From the text: as §1

For test [10], the target named is T10, panel of 371 human kinases (Homo sapiens, UniProt P41240).
T10 construct: purchased Reaction Biology Corp
The settings on record: CSK; 0.1 μM; 10 μM ATP; read-out: % Enzyme Activity (relative to DMSO controls).
From the text: as §1

Test [11] addresses T11, panel of 371 human kinases (Homo sapiens, UniProt P41743).
T11 construct: purchased Reaction Biology Corp
The settings on record: PKCiota; 0.1 μM; 10 μM ATP; read-out: % Enzyme Activity (relative to DMSO controls).
From the text: as §1

Test [12] addresses T12, panel of 371 human kinases (Homo sapiens, UniProt P52564).
T12 construct: purchased Reaction Biology Corp
Conditions: MKK6; 0.1 μM; 10 μM ATP; read-out: % Enzyme Activity (relative to DMSO controls).
From the text: as §1

Test [13] addresses T13, panel of 371 human kinases (Homo sapiens, UniProt P53667).
T13 construct: purchased Reaction Biology Corp
Conditions: LIMK1; 0.1 μM; 10 μM ATP; read-out: % Enzyme Activity (relative to DMSO controls).
From the text: as §1

The target in test [14] is T14, panel of 371 human kinases (Homo sapiens, UniProt P78362).
T14 construct: purchased Reaction Biology Corp
Conditions: SRPK2; 0.1 μM; 10 μM ATP; read-out: % Enzyme Activity (relative to DMSO controls).
From the text: as §1

Test [15] concerns the target T15, panel of 371 human kinases (Homo sapiens, UniProt Q13470).
T15 construct: purchased Reaction Biology Corp
Conditions: TNK1; 0.1 μM; 10 μM ATP; read-out: % Enzyme Activity (relative to DMSO controls).
From the text: as §1

The target of test [16] is T16, panel of 371 human kinases (Homo sapiens, UniProt Q15746).
T16 construct: purchased Reaction Biology Corp
Conditions: MLCK/MYLK; 0.1 μM; 10 μM ATP; read-out: % Enzyme Activity (relative to DMSO controls).
From the text: as §1

Test [17] addresses T17, panel of 371 human kinases (Homo sapiens, UniProt Q76MJ5).
T17 construct: purchased Reaction Biology Corp
Conditions: ERN2/IRE2; 0.1 μM; 10 μM ATP; read-out: % Enzyme Activity (relative to DMSO controls).
From the text: as §1

The target in test [18] is T18, panel of 371 human kinases (Homo sapiens, UniProt Q8IWQ3).
T18 construct: purchased Reaction Biology Corp
Conditions: BRSK2; 0.1 μM; 10 μM ATP; read-out: % Enzyme Activity (relative to DMSO controls).
From the text: as §1

Test [19] has as its target T19, panel of 371 human kinases (Homo sapiens, UniProt Q8TDX7).
T19 construct: purchased Reaction Biology Corp
Conditions: NEK7; 0.1 μM; 10 μM ATP; read-out: % Enzyme Activity (relative to DMSO controls).
From the text: as §1

For test [20], the target named is T20, panel of 371 human kinases (Homo sapiens, UniProt Q96SB4).
T20 construct: purchased Reaction Biology Corp
The settings on record: SRPK1; 0.1 μM; 10 μM ATP; read-out: % Enzyme Activity (relative to DMSO controls).
From the text: as §1

The target of test [21] is T21, panel of 371 human kinases (Homo sapiens, UniProt Q9BWU1).
T21 construct: purchased Reaction Biology Corp
Conditions: CDK19/cyclin C; 0.1 μM; 10 μM ATP; read-out: % Enzyme Activity (relative to DMSO controls).
From the text: as §1

Test [22] concerns the target T22, panel of 371 human kinases (Homo sapiens, UniProt Q9P289).
T22 construct: purchased Reaction Biology Corp
The settings on record: MST4; 0.1 μM; 10 μM ATP; read-out: % Enzyme Activity (relative to DMSO controls).
From the text: as §1

The target in test [23] is T23, panel of 371 human kinases (Homo sapiens, UniProt Q9UKE5).
T23 construct: purchased Reaction Biology Corp
The settings on record: TNIK; 0.1 μM; 10 μM ATP; read-out: % Enzyme Activity (relative to DMSO controls).
From the text: as §1

For test [24], the target named is T24, panel of 371 human kinases (Homo sapiens, UniProt Q9Y2K2).
T24 construct: purchased Reaction Biology Corp
The settings on record: SIK3; 0.1 μM; 10 μM ATP; read-out: % Enzyme Activity (relative to DMSO controls).
From the text: as §1

T18 sequence (Q8IWQ3 whole entry): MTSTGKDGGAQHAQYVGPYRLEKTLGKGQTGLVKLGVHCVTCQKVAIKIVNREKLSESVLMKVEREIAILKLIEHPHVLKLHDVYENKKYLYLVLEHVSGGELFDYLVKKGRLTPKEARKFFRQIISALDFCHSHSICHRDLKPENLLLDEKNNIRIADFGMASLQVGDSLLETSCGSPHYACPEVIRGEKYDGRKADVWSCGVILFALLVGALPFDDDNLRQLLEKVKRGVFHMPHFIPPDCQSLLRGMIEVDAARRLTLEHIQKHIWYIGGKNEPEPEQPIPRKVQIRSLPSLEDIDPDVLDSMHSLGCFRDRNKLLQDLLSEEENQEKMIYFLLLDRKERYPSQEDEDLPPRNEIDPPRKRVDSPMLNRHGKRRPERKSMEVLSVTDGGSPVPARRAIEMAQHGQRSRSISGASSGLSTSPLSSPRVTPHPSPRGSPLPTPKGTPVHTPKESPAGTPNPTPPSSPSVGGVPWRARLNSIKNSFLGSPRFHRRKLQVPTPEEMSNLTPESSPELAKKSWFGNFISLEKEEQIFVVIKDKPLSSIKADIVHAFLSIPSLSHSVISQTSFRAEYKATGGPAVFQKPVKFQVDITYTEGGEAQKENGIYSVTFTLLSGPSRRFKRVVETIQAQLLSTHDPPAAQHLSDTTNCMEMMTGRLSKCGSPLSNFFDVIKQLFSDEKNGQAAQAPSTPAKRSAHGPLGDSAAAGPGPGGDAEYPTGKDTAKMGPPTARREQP
T13 sequence (P53667 whole entry): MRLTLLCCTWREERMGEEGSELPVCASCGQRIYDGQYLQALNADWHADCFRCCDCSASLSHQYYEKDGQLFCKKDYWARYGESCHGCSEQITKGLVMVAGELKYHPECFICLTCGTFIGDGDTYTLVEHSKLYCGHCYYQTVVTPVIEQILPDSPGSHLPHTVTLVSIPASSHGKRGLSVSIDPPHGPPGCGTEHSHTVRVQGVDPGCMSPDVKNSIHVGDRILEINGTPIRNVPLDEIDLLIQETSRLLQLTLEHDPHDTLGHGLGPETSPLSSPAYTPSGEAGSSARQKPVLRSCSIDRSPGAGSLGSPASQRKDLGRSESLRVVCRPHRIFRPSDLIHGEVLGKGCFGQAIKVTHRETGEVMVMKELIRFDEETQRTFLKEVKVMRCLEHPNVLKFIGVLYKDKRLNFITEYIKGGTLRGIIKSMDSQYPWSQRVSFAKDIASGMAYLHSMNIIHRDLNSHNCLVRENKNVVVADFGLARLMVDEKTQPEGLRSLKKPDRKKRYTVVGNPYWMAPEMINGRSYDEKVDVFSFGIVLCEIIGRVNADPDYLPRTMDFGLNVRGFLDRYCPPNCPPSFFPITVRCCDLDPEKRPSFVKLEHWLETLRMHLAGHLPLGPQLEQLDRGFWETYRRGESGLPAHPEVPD
T16 sequence (Q15746 whole entry): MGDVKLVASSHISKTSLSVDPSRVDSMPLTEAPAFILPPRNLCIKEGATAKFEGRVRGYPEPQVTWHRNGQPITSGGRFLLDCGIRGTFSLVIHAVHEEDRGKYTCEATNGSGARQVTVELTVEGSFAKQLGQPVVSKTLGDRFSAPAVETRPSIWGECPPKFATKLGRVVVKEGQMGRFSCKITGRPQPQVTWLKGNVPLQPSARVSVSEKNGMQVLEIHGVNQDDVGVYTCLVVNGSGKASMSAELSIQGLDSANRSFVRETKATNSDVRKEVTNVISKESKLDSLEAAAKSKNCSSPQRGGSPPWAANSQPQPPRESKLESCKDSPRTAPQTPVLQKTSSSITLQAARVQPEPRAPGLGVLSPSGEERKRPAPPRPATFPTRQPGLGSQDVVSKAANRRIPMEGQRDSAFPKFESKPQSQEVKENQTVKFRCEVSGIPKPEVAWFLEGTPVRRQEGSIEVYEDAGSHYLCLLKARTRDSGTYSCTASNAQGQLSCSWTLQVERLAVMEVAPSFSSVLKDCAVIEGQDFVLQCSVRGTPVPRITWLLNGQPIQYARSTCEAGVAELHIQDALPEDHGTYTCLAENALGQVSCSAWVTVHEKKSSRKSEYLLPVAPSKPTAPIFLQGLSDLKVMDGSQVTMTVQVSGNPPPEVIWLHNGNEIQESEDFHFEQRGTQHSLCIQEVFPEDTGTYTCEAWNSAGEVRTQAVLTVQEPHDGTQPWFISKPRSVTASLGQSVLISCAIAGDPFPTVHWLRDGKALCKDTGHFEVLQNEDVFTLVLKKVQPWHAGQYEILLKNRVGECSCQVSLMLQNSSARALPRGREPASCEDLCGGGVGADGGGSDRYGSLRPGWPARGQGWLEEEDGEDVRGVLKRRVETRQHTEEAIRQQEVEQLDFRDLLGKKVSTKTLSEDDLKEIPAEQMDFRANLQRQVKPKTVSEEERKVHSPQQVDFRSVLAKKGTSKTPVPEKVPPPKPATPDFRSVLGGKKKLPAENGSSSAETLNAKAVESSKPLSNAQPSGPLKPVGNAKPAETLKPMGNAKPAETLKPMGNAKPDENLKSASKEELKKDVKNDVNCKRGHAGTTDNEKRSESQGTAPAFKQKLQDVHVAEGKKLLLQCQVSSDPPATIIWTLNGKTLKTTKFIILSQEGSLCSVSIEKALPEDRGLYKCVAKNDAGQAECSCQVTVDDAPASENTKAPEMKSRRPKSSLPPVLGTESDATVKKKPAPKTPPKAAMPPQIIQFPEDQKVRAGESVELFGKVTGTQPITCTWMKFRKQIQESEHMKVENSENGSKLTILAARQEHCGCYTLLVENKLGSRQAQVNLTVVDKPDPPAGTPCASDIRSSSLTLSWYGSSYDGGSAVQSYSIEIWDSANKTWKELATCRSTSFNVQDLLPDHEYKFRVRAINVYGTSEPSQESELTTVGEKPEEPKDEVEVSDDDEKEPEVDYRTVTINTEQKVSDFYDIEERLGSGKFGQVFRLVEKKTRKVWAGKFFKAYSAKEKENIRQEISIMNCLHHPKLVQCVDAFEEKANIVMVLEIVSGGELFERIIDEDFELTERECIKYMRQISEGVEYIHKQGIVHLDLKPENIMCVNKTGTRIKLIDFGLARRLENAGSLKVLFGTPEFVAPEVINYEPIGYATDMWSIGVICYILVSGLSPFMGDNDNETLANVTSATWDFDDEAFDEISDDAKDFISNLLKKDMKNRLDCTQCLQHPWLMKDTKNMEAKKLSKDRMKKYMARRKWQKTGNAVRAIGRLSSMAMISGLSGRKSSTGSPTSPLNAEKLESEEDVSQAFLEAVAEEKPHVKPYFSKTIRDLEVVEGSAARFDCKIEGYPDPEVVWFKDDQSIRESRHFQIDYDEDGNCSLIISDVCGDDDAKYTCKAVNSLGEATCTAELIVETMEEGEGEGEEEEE
T12 sequence (P52564 whole entry): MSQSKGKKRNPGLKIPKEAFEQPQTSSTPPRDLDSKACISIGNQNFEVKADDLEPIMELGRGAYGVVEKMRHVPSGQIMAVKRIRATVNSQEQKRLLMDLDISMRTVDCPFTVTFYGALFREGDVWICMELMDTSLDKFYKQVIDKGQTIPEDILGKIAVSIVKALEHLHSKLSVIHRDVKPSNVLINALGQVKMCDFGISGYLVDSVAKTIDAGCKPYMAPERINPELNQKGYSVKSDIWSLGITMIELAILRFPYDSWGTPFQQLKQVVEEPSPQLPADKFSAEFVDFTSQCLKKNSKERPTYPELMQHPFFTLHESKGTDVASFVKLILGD
T3 sequence (O94806 whole entry): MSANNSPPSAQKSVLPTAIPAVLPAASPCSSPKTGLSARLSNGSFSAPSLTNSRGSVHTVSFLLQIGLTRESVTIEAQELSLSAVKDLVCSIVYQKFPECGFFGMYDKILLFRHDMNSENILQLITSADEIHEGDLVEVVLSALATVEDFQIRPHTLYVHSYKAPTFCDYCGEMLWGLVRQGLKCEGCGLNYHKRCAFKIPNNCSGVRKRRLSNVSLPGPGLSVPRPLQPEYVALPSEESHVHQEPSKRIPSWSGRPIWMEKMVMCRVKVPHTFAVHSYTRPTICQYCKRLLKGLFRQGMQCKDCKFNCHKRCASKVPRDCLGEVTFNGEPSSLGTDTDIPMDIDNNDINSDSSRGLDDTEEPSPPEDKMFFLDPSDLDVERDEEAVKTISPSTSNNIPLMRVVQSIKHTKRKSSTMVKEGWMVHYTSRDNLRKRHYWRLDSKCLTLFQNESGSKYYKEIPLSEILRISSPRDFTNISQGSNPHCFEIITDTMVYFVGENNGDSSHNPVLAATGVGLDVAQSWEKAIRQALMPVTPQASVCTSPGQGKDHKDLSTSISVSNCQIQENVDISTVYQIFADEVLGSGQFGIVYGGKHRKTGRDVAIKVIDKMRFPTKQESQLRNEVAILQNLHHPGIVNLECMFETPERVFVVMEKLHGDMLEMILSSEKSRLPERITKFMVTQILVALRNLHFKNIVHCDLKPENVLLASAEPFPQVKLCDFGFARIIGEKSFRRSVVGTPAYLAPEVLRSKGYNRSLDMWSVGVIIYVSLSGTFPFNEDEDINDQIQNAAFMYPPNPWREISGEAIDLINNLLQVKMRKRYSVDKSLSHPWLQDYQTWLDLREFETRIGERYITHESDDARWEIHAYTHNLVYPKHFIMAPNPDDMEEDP
T6 sequence (P09769 whole entry): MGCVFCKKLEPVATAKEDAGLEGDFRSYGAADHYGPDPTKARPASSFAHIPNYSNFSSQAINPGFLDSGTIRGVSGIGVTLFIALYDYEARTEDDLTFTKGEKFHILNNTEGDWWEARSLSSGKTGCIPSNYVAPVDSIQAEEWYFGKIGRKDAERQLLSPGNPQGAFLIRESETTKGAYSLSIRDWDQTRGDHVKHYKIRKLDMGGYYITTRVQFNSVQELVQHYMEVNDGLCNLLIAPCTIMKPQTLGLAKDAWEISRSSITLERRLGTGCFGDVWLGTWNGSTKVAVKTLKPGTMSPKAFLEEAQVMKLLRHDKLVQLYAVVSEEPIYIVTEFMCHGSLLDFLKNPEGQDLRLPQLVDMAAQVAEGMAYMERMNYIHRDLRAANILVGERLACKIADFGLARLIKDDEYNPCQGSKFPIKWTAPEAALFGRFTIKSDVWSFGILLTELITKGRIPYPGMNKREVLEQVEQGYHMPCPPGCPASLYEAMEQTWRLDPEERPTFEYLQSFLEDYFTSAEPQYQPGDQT

Turning to `OCCN1CCN(Cc2ccc(-c3cnc4[nH]cc(-c5cccc(Cl)c5)c4c3)cc2)CC1` [Compound 12k, 2-(4-(4-(3-(3-Chlorophenyl)-1H-pyrrolo[2,3-b]pyridin-5-yl)benzyl)piperazin-1-yl)ethan-1-ol], the remaining activity at 0.1 µM in [1] came to 99.8%; in [2], 59.1%; in test [3] it was 13.6%; in [4], 84.4%; in test [5], 95.8%; in [6], 84.2%. The remaining activity at 0.1 µM amounted to 96.6% in test [7]; 89.4% in [8]; 93.1% in test [9]; 90.8% in test [10]; 93% in test [11]; 97.9% in test [12]. Further, the remaining activity at 0.1 µM worked out at 103% in test [13]; 93.6% in [14]; 95.6% in test [15]; 99.1% in test [16]; 64.3% in test [17]; 93.5% in test [18]. Further, the remaining activity at 0.1 µM was 101% in test [19]; 100% in [20]; 64.8% in [21]; 73.2% in [22]; -0.01% in test [23]; 92.3% in test [24].

Regarding `CN1CCN(Cc2ccc(-c3cnc4[nH]cc(-c5ccc6[nH]ccc6c5)c4c3)cc2)CC1` [Compound 1, 3-(1H-Indol-5-yl)-5-(4-((4-methylpiperazin-1-yl)methyl)phenyl)-1H-pyrrolo[2,3-b]pyridine, reference compound], the remaining activity at 0.1 µM in [1] came to 108%; in [2] it was 73.2%; in test [3], 29.1%; in test [4], 83.6%; in test [5] it was 110%; in test [6], 97.2%. Besides, the remaining activity at 0.1 µM in [7] came out at 108%; in test [8], 74.2%; in [9], 86.7%; in [10] it was 87.5%; in [11], 100%; in [12], 116%. The remaining activity at 0.1 µM in test [13] was found to be 112%; in test [14], 80.3%; in test [15], 97%; in test [16] it was 93.4%; in test [17], 92.3%; in [18], 98%. Also, the remaining activity at 0.1 µM in test [19] stood at 94.9%; in test [20] it was 104%; in test [21], 94.9%; in test [22], 73%; in test [23], 5.84%; in [24] it was 75.5%.

The values are drawn from US12227500B2, “Substituted pyrrolo[2,3-b]pyridines for suppressing toxic endoplasmic reticulum stress” (THE TRUSTEES OF COLUMBIA UNIVERSITY IN THE CITY OF NEW YORK, priority 2018, dated 2025).
